Values of other authors, collected in patent US20240000802A1, “DIFLUPREDNATE FOR REDUCING THE ADVERSE EFFECTS OF OCULAR INFLAMMATION” (SUN PHARMA ADVANCED RESEARCH COMPANY LIMITED, priority 2020, published 2024).

solubility in aqueous vehicle: practically insoluble
Compound: CCCC(=O)O[C@]1(C(=O)COC(C)=O)CC[C@H]2[C@@H]3C[C@H](F)C4=CC(=O)C=C[C@]4(C)[C@@]3(F)[C@@H](O)C[C@@]21C [Difluprednate]
